From ChEMBL document CHEMBL4706477, “Synthesis and Biological Evaluation of Calothrixins B and their Deoxygenated Analogues” (J Med Chem, 2018)

How the values were obtained:
NCI-H460 = test: cells; conditions: Homo sapiens, NCI-H460, 48 h
Description: Antiproliferative activity against human NCI-H460 cells assessed as reduction in cell viability incubated for 48 hrs by sulphorhodamine B assay

HCT-116 [1] = test: cells; conditions: Homo sapiens, HCT-116, 48 h
Description: Antiproliferative activity against human HCT-116 cells assessed as reduction in cell viability incubated for 48 hrs by sulphorhodamine B assay

MCF7 = test: cells; conditions: Homo sapiens, MCF7, 48 h
Description: Antiproliferative activity against human MCF7 cells assessed as reduction in cell viability incubated for 48 hrs by sulphorhodamine B assay

U-251 = test: cells; conditions: Homo sapiens, U-251, 48 h
Description: Antiproliferative activity against human U-251 cells assessed as reduction in cell viability incubated for 48 hrs by sulphorhodamine B assay

Jurkat = test: cells; conditions: Homo sapiens, 48 h
Description: Antiproliferative activity against human Jurkat cells assessed as reduction in cell viability incubated for 48 hrs by sulphorhodamine B assay

HeLa = test: cells; conditions: Homo sapiens, 48 h
Description: Antiproliferative activity against human HeLa cells assessed as reduction in cell viability incubated for 48 hrs by sulphorhodamine B assay

MDA-MB-231 = test: cells; conditions: Homo sapiens, MDA-MB-231, 48 h
Description: Antiproliferative activity against human MDA-MB-231 cells assessed as reduction in cell viability incubated for 48 hrs by sulphorhodamine B assay

HCT-116 [2] = test: cells; conditions: Homo sapiens, HCT-116, 48 h; remark: listed apart in the source
Description: Antiproliferative activity against human HCT-116 p53-/- cells assessed as reduction in cell viability incubated for 48 hrs by sulphorhodamine B assay

SiHa = test: cells; conditions: Homo sapiens, 48 h
Description: Antiproliferative activity against human SiHa cells assessed as reduction in cell viability incubated for 48 hrs by sulphorhodamine B assay

Calf thymus DNA = test: Binding affinity to calf thymus DNA assessed as hypochromic effect at 3*10^-5 mol/L by double beam UV-Vis spectroscopic analysis; type: nucleic-acid assay; conditions: Bos taurus
A549 = test: Antiproliferative activity against human A549 cells assessed as reduction in cell viability incubated for 48 hrs by sulphorhodamine B assay; type: functional
HEK293 = test: Antiproliferative activity against human HEK293 cells assessed as reduction in cell viability incubated for 48 hrs by sulphorhodamine B assay; type: functional

Compound	GI50 (NCI-H460) [nM]	GI50 (HCT-116 [1]) [nM]	GI50 (MCF7) [nM]	GI50 (U-251) [nM]	GI50 (Jurkat) [nM]	GI50 (HeLa) [nM]	GI50 (MDA-MB-231) [nM]	GI50 (HCT-116 [2]) [nM]	Activity (Calf thymus DNA) [%]	GI50 (A549) [nM]	GI50 (SiHa) [nM]	GI50 (HEK293) [nM]
COc1cc2ncc3c(c2cc1OC)C(=O)c1[nH]c2ccccc2c1C3=O	> 4000	> 4000	360	> 4000	> 4000	> 4000	> 4000	> 4000	–	–	> 4000	–
O=C1c2[nH]c3ccccc3c2C(=O)c2cnc3cc(F)c(Br)cc3c21	2250	> 4000	660	> 4000	> 4000	270	400	> 4000	–	–	> 4000	–
O=C1c2[nH]c3ccccc3c2C(=O)c2cnc3cc(Cl)c(Cl)cc3c21	> 4000	> 4000	> 4000	> 4000	> 4000	1800	1800	> 4000	–	–	> 4000	–
CC[C@@]1(O)C(=O)OCc2c1cc1n(c2=O)Cc2cc3ccccc3nc2-1 [CAMPTOTHECIN]	5.7	50	60	10	60	190	400	195	–	–	550	–
c1ccc2c(c1)ccc1cc3c(cc12)[nH]c1ccccc13	> 50000	> 50000	> 4000	> 4000	> 4000	> 4000	> 4000	–	–	> 4000	> 4000	> 4000
c1ccc2c(c1)ncc1cc3[nH]c4ccccc4c3cc12	10000	> 50000	> 4000	> 4000	> 4000	1400	> 4000	–	–	> 4000	> 4000	> 4000
Clc1ccc2c(c1)ncc1cc3c(cc12)[nH]c1ccccc13	10000	28000	> 4000	> 4000	> 4000	430	> 4000	–	–	> 4000	> 4000	> 4000
COc1ccc2ncc3c(c2c1)C(=O)c1[nH]c2ccccc2c1C3=O	> 4000	630	> 4000	> 4000	> 4000	> 4000	> 4000	> 4000	–	–	> 4000	–

Now from value to compound, other results behind:

GI50 (NCI-H460) [nM]	GI50 (HCT-116 [1]) [nM]	GI50 (MCF7) [nM]	GI50 (U-251) [nM]	GI50 (Jurkat) [nM]	GI50 (HeLa) [nM]	GI50 (MDA-MB-231) [nM]	GI50 (HCT-116 [2]) [nM]	Activity (Calf thymus DNA) [%]	GI50 (A549) [nM]	Compound	GI50 (SiHa) [nM]	GI50 (HEK293) [nM]
1050	1000	950	1200	–	530	900	–	38	–	Nc1nc2cc(Cl)ccc2c2cc3[nH]c4ccccc4c3cc12	1100	–
1400	1500	530	2830	3550	70	360	2600	–	–	O=C1c2[nH]c3ccccc3c2C(=O)c2cnc3cc(Cl)ccc3c21	1600	–
1000	1000	1000	1050	–	800	1000	–	–	–	Nc1nc2ccccc2c2cc3[nH]c4ccccc4c3cc12	1050	–
1270	1500	600	2000	1500	210	1000	2600	–	–	O=C1c2[nH]c3ccccc3c2C(=O)c2cnc3cc(Br)ccc3c21	> 4000	–
